Source: the supplement of paper PMC10307832

Assays:
Experiment in all cases: relative viability (nuclei count vs DMSO), 5 days (fraction); higher = more cells survive
17-AAG + AZD7762 = compound: C=CCNC1=C2C[C@@H](C)C[C@H](OC)[C@H](O)[C@@H](C)/C=C(\C)[C@H](OC(N)=O)[C@@H](OC)/C=C\C=C(/C)C(=O)NC(=CC1=O)C2=O [17-AAG] + NC(=O)Nc1cc(-c2cccc(F)c2)sc1C(=O)N[C@H]1CCCNC1 [AZD7762] (partner 0.2 µM)
Summary of the method: (§1)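 Five library-drug doses in √10 steps were combined with a fixed anchor-drug dose, or a single drug was given alone, by pin tool to lung cancer cell lines in 1536-well plates the day after seeding. Nuclei were stained and counted after 5 days. Relative viability is the nuclei count in treated wells over that in vehicle wells, taken as the median of duplicate plates.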

17-AAG + Alpelisib = compound: C=CCNC1=C2C[C@@H](C)C[C@H](OC)[C@H](O)[C@@H](C)/C=C(\C)[C@H](OC(N)=O)[C@@H](OC)/C=C\C=C(/C)C(=O)NC(=CC1=O)C2=O [17-AAG] + Cc1nc(NC(=O)N2CCC[C@H]2C(N)=O)sc1-c1ccnc(C(C)(C)C(F)(F)F)c1 [Alpelisib] (partner 2 µM)
Summary of the method: as §1

17-AAG + Phenformin = compound: C=CCNC1=C2C[C@@H](C)C[C@H](OC)[C@H](O)[C@@H](C)/C=C(\C)[C@H](OC(N)=O)[C@@H](OC)/C=C\C=C(/C)C(=O)NC(=CC1=O)C2=O [17-AAG] + N=C(N)NC(=N)NCCc1ccccc1 [Phenformin] (partner 250 µM)
Summary of the method: as §1

17-AAG + Pictilisib = compound: C=CCNC1=C2C[C@@H](C)C[C@H](OC)[C@H](O)[C@@H](C)/C=C(\C)[C@H](OC(N)=O)[C@@H](OC)/C=C\C=C(/C)C(=O)NC(=CC1=O)C2=O [17-AAG] + CS(=O)(=O)N1CCN(Cc2cc3nc(-c4cccc5[nH]ncc45)nc(N4CCOCC4)c3s2)CC1 [Pictilisib] (partner 1 µM)
Summary of the method: as §1

Cell Line	relative viability (17-AAG + AZD7762; first compound 0.00128 µM)	relative viability (17-AAG + AZD7762; first compound 0.004048 µM)	relative viability (17-AAG + AZD7762; first compound 0.0128 µM)	relative viability (17-AAG + AZD7762; first compound 0.04048 µM)	relative viability (17-AAG + AZD7762; first compound 0.128 µM)	relative viability (17-AAG + Alpelisib; first compound 0.00128 µM)	relative viability (17-AAG + Alpelisib; first compound 0.004048 µM)	relative viability (17-AAG + Alpelisib; first compound 0.0128 µM)	relative viability (17-AAG + Alpelisib; first compound 0.04048 µM)	relative viability (17-AAG + Alpelisib; first compound 0.128 µM)	relative viability (17-AAG + Phenformin; first compound 0.00128 µM)	relative viability (17-AAG + Phenformin; first compound 0.004048 µM)	relative viability (17-AAG + Phenformin; first compound 0.0128 µM)	relative viability (17-AAG + Phenformin; first compound 0.04048 µM)	relative viability (17-AAG + Phenformin; first compound 0.128 µM)	relative viability (17-AAG + Pictilisib; first compound 0.00128 µM)	relative viability (17-AAG + Pictilisib; first compound 0.004048 µM)	relative viability (17-AAG + Pictilisib; first compound 0.0128 µM)	relative viability (17-AAG + Pictilisib; first compound 0.04048 µM)	relative viability (17-AAG + Pictilisib; first compound 0.128 µM)
LOU-NH91	0.765	0.71	0.444	0.382	0.347	0.66	0.592	0.532	0.446	0.34	0.592	0.513	0.383	0.376	0.307	0.573	0.515	0.451	0.384	0.332
LU99A	0.372	0.284	0.115	0.179	0.074	0.564	0.535	0.477	0.4	0.165	0.725	0.734	0.468	0.225	0.116	0.308	0.377	0.232	0.228	0.144
LXF-289	1.09	1.1	0.617	0.151	0.0926	1.07	1.03	0.882	0.647	0.118	0.544	0.511	0.189	0.0865	0.0697	0.823	0.805	0.239	0.107	0.0836
NCI-H23	0.201	0.4	0.18	0.122	0.0996	0.717	0.472	0.434	0.2	0.148	0.665	0.769	0.575	0.319	0.155	0.468	0.517	0.224	0.179	0.145
NCI-H322M	0.633	0.415	0.405	0.382	0.413	0.826	0.865	0.796	0.548	0.382	0.77	0.808	0.311	0.28	0.303	0.553	0.564	0.523	0.259	0.279
NCI-H358	0.522	0.381	0.132	0.142	0.139	0.838	0.556	0.126	0.134	0.126	0.321	0.155	0.0612	0.0774	0.0534	0.392	0.219	0.125	0.131	0.126
NCI-H441	1.07	1.02	0.669	0.118	0.108	0.625	0.61	0.236	0.172	0.145	0.877	0.397	0.184	0.182	0.129	0.582	0.334	0.285	0.216	0.124
NCI-H460	0.549	0.676	0.0907	0.0489	0.0524	0.544	0.214	0.0127	0.0124	0.0122	0.468	0.332	0.0221	0.021	0.0236	0.404	0.462	0.193	0.0668	0.0737
